What follows are compounds tested against Prothrombin (Homo sapiens, UniProt P00734) (assay: In vitro inhibitory activity against human Thrombin (FIIa) cleavage of the chromogenic substrate).

Row | Ki [µM] | SMILES
1 | 1.32 | Cc1ccc(NS(=O)(=O)c2ccc3c(c2)CCO3)c(=O)n1CC(=O)NCc1ccc2c[nH]nc2c1
2 | 0.01 | Cc1cnc(NCC2(c3ccccc3)CCC2)c(=O)n1CC(=O)NCc1ccc2[nH]nc(O)c2c1
3 | 0.033 | Cc1cnc(NCCc2ccccc2)c(=O)n1CC(=O)NCc1ccc2[nH]nc(O)c2c1
4 | 0.0057 | Cc1cnc(NC[C@H](C)c2ccccc2)c(=O)n1CC(=O)NCc1ccc2[nH]ncc2c1
5 | 0.0093 | Cc1cnc(NC[C@@H](C)c2ccccc2)c(=O)n1CC(=O)NCc1ccc2[nH]cnc2c1
6 | 0.082 | Cc1cnc(NCCc2ccccc2)c(=O)n1CC(=O)NCc1ccc2c(N)noc2c1
7 | 0.029 | Cc1ccc(NS(=O)(=O)c2ccc3c(c2)CCO3)c(=O)n1CC(=O)NCc1ccc2[nH]nc(N)c2c1
8 | 0.271 | Cc1cc2cn[nH]c2cc1CNC(=O)Cn1c(C)ccc(NS(=O)(=O)Cc2ccccc2)c1=O
9 | 0.018 | Cc1cnc(NCCc2ccccc2)c(=O)n1CC(=O)NCc1ccc2[nH]ncc2c1
10 | 0.444 | Cc1n[nH]c2ccc(CNC(=O)Cn3c(C)cnc(NCCc4ccccc4)c3=O)cc12
11 | 0.018 | Cc1cnc(NCCc2ccc(F)cc2)c(=O)n1CC(=O)NCc1ccc2c(N)noc2c1
12 | 0.0025 | Cc1cnc(NCC(F)(F)c2ccccc2)c(=O)n1CC(=O)NCc1ccc2c(N)noc2c1
13 | 0.0007 | Cc1nc(N)ccc1CNC(=O)Cn1c(C)ccc(NS(=O)(=O)Cc2ccccc2)c1=O [L-374087]
14 | 0.005 | COc1ccc(CCNc2ncc(C)n(CC(=O)NCc3ccc4[nH]cnc4c3)c2=O)cc1
15 | 0.0039 | Cc1ccc(NS(=O)(=O)c2ccc3c(c2)CCO3)c(=O)n1CC(=O)NCc1ccc2[nH]ncc2c1
16 | 0.031 | Cc1cnc(NCC(c2ccccc2)c2ccccc2)c(=O)n1CC(=O)NCc1ccc2c(N)noc2c1
17 | 0.0041 | Cc1cnc(NCC(F)(F)c2ccccc2)c(=O)n1CC(=O)NCc1ccc2[nH]nc(N)c2c1
18 | 0.073 | Cc1ccc(NS(=O)(=O)Cc2ccccc2)c(=O)n1CC(=O)NCc1ccc2[nH]nc(N)c2c1

Row | Ki [µM] | SMILES
19 | > 3.97 | Cc1cnc(NCCc2ccccc2)c(=O)n1CC(=O)NCc1ccc2nc(N)sc2c1
20 | 0.074 | Cc1ccc(NS(=O)(=O)Cc2ccccc2)c(=O)n1CC(=O)NCc1ccc2c(N)noc2c1
21 | 1.59 | Cc1ccc(NS(=O)(=O)Cc2ccccc2)c(=O)n1CC(=O)NCc1ccc2c(N)[nH]nc2n1
22 | 0.0031 | Cc1cnc(NCCc2ccccn2)c(=O)n1CC(=O)NCc1ccc2[nH]ncc2c1
23 | 0.026 | Cc1cnc(NCC2(c3ccccn3)CC2)c(=O)n1CC(=O)NCc1ccc2c(N)noc2c1
24 | 0.0065 | Cc1ccc(NS(=O)(=O)Cc2ccc(Cl)cc2)c(=O)n1CC(=O)NCc1ccc2[nH]cnc2c1
25 | 0.016 | Cc1cnc(NCC2(c3ccc(F)cc3)CC2)c(=O)n1CC(=O)NCc1ccc2c(N)noc2c1
26 | > 3.97 | Cc1nc2cc(CNC(=O)Cn3c(C)cnc(NCCc4ccccc4)c3=O)ccc2[nH]1
27 | 0.203 | Cc1ccc(NS(=O)(=O)Cc2ccccc2)c(=O)n1CC(=O)NCc1ccc2c(N)noc2n1
28 | 0.024 | CCc1cnc(NCCc2ccccc2)c(=O)n1CC(=O)NCc1ccc2[nH]ccc2c1
29 | 0.224 | Cc1ccc(NS(=O)(=O)Cc2ccccc2)c(=O)n1CC(=O)NCc1ccc2c(N)[nH]nc2c1
30 | 0.03 | Cc1cnc(NCCc2ccc3c(c2)CCC3)c(=O)n1CC(=O)NCc1ccc2[nH]ccc2c1
31 | 0.009 | COc1ccc(C2(CNc3ncc(C)n(CC(=O)NCc4ccc5[nH]nc(N)c5c4)c3=O)CC2)cc1
32 | 0.01 | COc1cccc(CCNc2ncc(C)n(CC(=O)NCc3ccc4[nH]ncc4c3)c2=O)c1
33 | 12.4 | Cc1cnc(NCCc2ccc3c(c2)CCC3)c(=O)n1CC(=O)NCc1ccc2c(ccn2N)c1
34 | 0.015 | Cc1cnc(NCC2(c3ccc(F)cc3)CC2)c(=O)n1CC(=O)NCc1ccc2[nH]nc(N)c2c1
35 | 0.0029 | Cc1cnc(NCCc2ccc3c(c2)CCO3)c(=O)n1CC(=O)NCc1ccc2[nH]ncc2c1
36 | 0.224 | Cc1cnc(NCCc2ccccc2)c(=O)n1CC(=O)NCc1ccc2[nH]nnc2c1
